Ends that are not written are not given here.
Columns and labels:
adenylate cyclase [1] = details: measured as amides; for pA2 Value: negative logarithm of the antagonist concentration that reduces the response to 1 unit of agonist to that of 0.5 unit; for % Relative Activity: relative potency in stimulating adenylate cyclase
Description: The inhibition index is the molar ratio of antagonist to agonist which reduces the biological response to one half of the value for the agonist in the absence of antagonist. It will be discussed more fully hereinafter.
Adenylate Cyclase Assay. The assay on liver membranes was performed according to Salomon et al. [Salomon, Y., Londos, C. & Rodbell, M. Anal. Biochem. 58, 541, 548 (1974)].
The purpose of the adenylate cyclase assay is to measure the ability of the compound under test to stimulate the activity of adenylate cyclase. The assays are used to measure relative potency, maximum activity and inhibition index.
The inhibition index, defined above, was determined from adenylate cyclase assays by two different protocols. • 1. A glucagon standard curve for cAMP vs glucagon concentration was established. Then another glucagon assay curve was measured in the presence of a constant amount of antagonist. […] A series of tubes were set up containing an amount of glucagon which will produce 90% of maximum response. Increasing amounts of antagonist were then added and the concentration that reduced the response to 45% of maximum was determined.

adenylate cyclase [2] = details: prior-art antagonist, background; cited from earlier work
glucagon receptor = details: prior-art antagonist, background; cited from earlier work
[3] = test system: another binding system in the hepatocyte membrane; details: prior-art antagonist, background; cited from earlier work

SQGTFTSQYSKYLDSRRAQDFVQWLMNT-NH2 [compound 14, des-His^1[Gln^9]]
pA2 Value (adenylate cyclase [1]): 8.21 | % Relative Activity (adenylate cyclase [1]): <0.003%

SQGTFTSHYSKYLDSRRAQDFVQWLMNT-NH2 [compound 17, des-His^1[His^9]]
pA2 Value (adenylate cyclase [1]): 7.0 | % Relative Activity (adenylate cyclase [1]): 0.011%

CSCC[C@H](NC(=O)[C@H](CC(C)C)NC(=O)[C@H](Cc1c[nH]c2ccccc12)NC(=O)[C@H](CCC(N)=O)NC(=O)[C@@H](NC(=O)[C@H](Cc1ccccc1)NC(=O)[C@H](CC(=O)O)NC(=O)[C@H](CCC(N)=O)NC(=O)[C@H](C)NC(=O)[C@H](CCCNC(=N)N)NC(=O)[C@H](CCCNC(=N)N)NC(=O)[C@H](CO)NC(=O)[C@H](CC(=O)O)NC(=O)[C@H](CC(C)C)NC(=O)[C@H](Cc1ccc(O)cc1)NC(=O)[C@H](CCCCN)NC(=O)[C@H](CO)NC(=O)[C@H](Cc1ccc(O)cc1)NC(=O)[C@@H](CCC(=O)O)NC(=O)[C@H](CO)NC(=O)[C@@H](NC(=O)[C@H](Cc1ccccc1)NC(=O)[C@@H](NC(=O)CNC(=O)[C@H](CCC(N)=O)NC(=O)[C@@H](N)CO)[C@@H](C)O)[C@@H](C)O)C(C)C)C(=O)N[C@@H](CC(N)=O)C(=O)N[C@H](C(N)=O)[C@@H](C)O [compound 11, des-His^1[D-Glu^9]]
pA2 Value (adenylate cyclase [1]): 5.4 | % Relative Activity (adenylate cyclase [1]): <0.0037%

Nα- trinitrophenyl [12-homoarginine] glucagon
activation of adenylate cyclase (adenylate cyclase [2]): without significant activation of adenylate cyclase | binding to the glucagon receptor (glucagon receptor): does bind to the glucagon receptor | production of inositol trisphosphate and calcium ions [3]: activates another binding system in the hepatocyte membrane leading to the production of inositol trisphosphate and calcium ions

CCCC[C@H](NC(=O)[C@H](CO)NC(=O)[C@@H](NC(=O)[C@H](Cc1ccccc1)NC(=O)[C@@H](NC(=O)CNC(=O)[C@H](CCC(N)=O)NC(=O)[C@@H](N)CO)[C@@H](C)O)[C@@H](C)O)C(=O)N[C@@H](Cc1ccc(O)cc1)C(=O)N[C@@H](CO)C(=O)N[C@@H](CCCCN)C(=O)N[C@@H](Cc1ccc(O)cc1)C(=O)N[C@@H](CC(C)C)C(=O)N[C@@H](CC(=O)O)C(=O)N[C@@H](CO)C(=O)N[C@@H](CCCNC(=N)N)C(=O)N[C@@H](CCCNC(=N)N)C(=O)N[C@@H](C)C(=O)N[C@@H](CCC(N)=O)C(=O)N[C@@H](CC(=O)O)C(=O)N[C@@H](Cc1ccccc1)C(=O)N[C@H](C(=O)N[C@@H](CCC(N)=O)C(=O)N[C@@H](Cc1c[nH]c2ccccc12)C(=O)N[C@@H](CC(C)C)C(=O)N[C@@H](CCSC)C(=O)N[C@@H](CC(N)=O)C(=O)N[C@H](C(N)=O)[C@@H](C)O)C(C)C [compound 18, des - His^1 [Nle^9] glucagon amide]
pA2 Value (adenylate cyclase [1]): 7.6 | % Relative Activity (adenylate cyclase [1]): <0.0012%

SQGTFTSFYSKYLDSRRAQDFVQWLMNT-NH2 [compound 19, des-His^1[Phe^9]]
pA2 Value (adenylate cyclase [1]): 6.2 | % Relative Activity (adenylate cyclase [1]): <0.0003%

HSQGTFTSYSKYLDSRRAQDFVQWLMNT-NH2 [compound 2, des-Asp^9]
pA2 Value (adenylate cyclase [1]): 7.2 | % Relative Activity (adenylate cyclase [1]): 1.04%

CSCC[C@H](NC(=O)[C@H](CC(C)C)NC(=O)[C@H](Cc1c[nH]c2ccccc12)NC(=O)[C@H](CCC(N)=O)NC(=O)[C@@H](NC(=O)[C@H](Cc1ccccc1)NC(=O)[C@H](CC(=O)O)NC(=O)[C@H](CCC(N)=O)NC(=O)[C@H](C)NC(=O)[C@H](CCCNC(=N)N)NC(=O)[C@H](CCCNC(=N)N)NC(=O)[C@H](CO)NC(=O)[C@H](CC(=O)O)NC(=O)[C@H](CC(C)C)NC(=O)[C@H](Cc1ccc(O)cc1)NC(=O)[C@H](CCCCN)NC(=O)[C@H](CO)NC(=O)[C@H](Cc1ccc(O)cc1)NC(=O)[C@@H](CC(=O)O)NC(=O)[C@H](CO)NC(=O)[C@@H](NC(=O)[C@H](Cc1ccccc1)NC(=O)[C@@H](NC(=O)CNC(=O)[C@H](CCC(N)=O)NC(=O)[C@@H](N)CO)[C@@H](C)O)[C@@H](C)O)C(C)C)C(=O)N[C@@H](CC(N)=O)C(=O)N[C@H](C(N)=O)[C@@H](C)O [compound 10, des-His^1[D-Asp^9]]
pA2 Value (adenylate cyclase [1]): 5.9 | % Relative Activity (adenylate cyclase [1]): <0.0028%

SQGTFTSGYSKYLDSRRAQDFVQWLMNT-NH2 [compound 15, des - His^1 [Gly^9] glucagon amide]
pA2 Value (adenylate cyclase [1]): 6.24 | % Relative Activity (adenylate cyclase [1]): <0.006%

SQGTFTSNYSKYLDSRRAQDFVQWLMNT-NH2 [compound 13, des-His^1[Asn^9]]
pA2 Value (adenylate cyclase [1]): 6.52 | % Relative Activity (adenylate cyclase [1]): <0.0026%

SQGTFTSKYSKYLDSRRAQDFVQWLMNT-NH2 [compound 16, des - His^1 [Lys^9] glucagon amide]
pA2 Value (adenylate cyclase [1]): 7.35 | % Relative Activity (adenylate cyclase [1]): <0.0012%

SQGTFTSYSKYLDSRRAQDFVQWLMNT-NH2 [compound 20, des-His^1des-Asp^9]
pA2 Value (adenylate cyclase [1]): 5.5 | % Relative Activity (adenylate cyclase [1]): <0.0022%

COC(=O)CC[C@H](NC(=O)[C@H](CO)NC(=O)[C@@H](NC(=O)[C@H](Cc1ccccc1)NC(=O)[C@@H](NC(=O)CNC(=O)[C@H](CCC(N)=O)NC(=O)[C@@H](N)CO)[C@@H](C)O)[C@@H](C)O)C(=O)N[C@@H](Cc1ccc(O)cc1)C(=O)N[C@@H](CO)C(=O)N[C@@H](CCCCN)C(=O)N[C@@H](Cc1ccc(O)cc1)C(=O)N[C@@H](CC(C)C)C(=O)N[C@@H](CC(=O)O)C(=O)N[C@@H](CO)C(=O)N[C@@H](CCCNC(=N)N)C(=O)N[C@@H](CCCNC(=N)N)C(=O)N[C@@H](C)C(=O)N[C@@H](CCC(N)=O)C(=O)N[C@@H](CC(=O)O)C(=O)N[C@@H](Cc1ccccc1)C(=O)N[C@H](C(=O)N[C@@H](CCC(N)=O)C(=O)N[C@@H](Cc1c[nH]c2ccccc12)C(=O)N[C@@H](CC(C)C)C(=O)N[C@@H](CCSC)C(=O)N[C@@H](CC(N)=O)C(=O)N[C@H](C(N)=O)[C@@H](C)O)C(C)C [compound 12, des-His^1[Glu^9-(OCH3)]]
pA2 Value (adenylate cyclase [1]): 7.35 | % Relative Activity (adenylate cyclase [1]): 0.011%

DSQGTFTSHYSKYLDSRRAQDFVQWLMNT-NH2 [compound 9, Asp^1His^9]
pA2 Value (adenylate cyclase [1]): 6.3 | % Relative Activity (adenylate cyclase [1]): <0.0009%
